Source: US7399871B2, “Crystal forms of (S)-(+)-N,N-dimethyl-3-(1-naphthalenyloxy)-3-(2-thienyl)propanamine oxalate and the preparation thereof” (Teva Pharmaceutical Industries Ltd., priority 2005, dated 2008)

Assay: Storage stability of DNT-Oxal crystal forms (polymorphic form by XRD)
Assay type: physicochemical
Conditions: stored at room temperature for 11 months; for Crystal form after the storage: crystal form before vs after the storage, oxalate
Method: Crystal forms of DNT-Oxal were stored at room temperature for 11 months. […] The forms of DNT-Oxal were identified using a Scintag X-ray powder diffractometer model X'TRA with a Cu-tube solid state detector. The sample holder was a round standard aluminum sample holder with rough zero background quartz plate with a cavity having a diameter of 25 mm and a depth of 0.5 mm. The scanning parameters were as follows: a range of 2° to 40° 2θ; a continuous scan mode, and a step size of 0.05° at a rate of 3°/minute.

Polymorphic stability on storage	Crystal form after the storage	SMILES
polymorphically stable	Form II	CN(C)CC[C@H](Oc1cccc2ccccc12)c1cccs1.O=C(O)C(=O)O [Form II, (S)-(+)-N,N-Dimethyl-3-(1-naphthalenyloxy)-3-(2-thienyl)propanamine oxalate]
polymorphically stable	Form III	CN(C)CC[C@H](Oc1cccc2ccccc12)c1cccs1.O=C(O)C(=O)O [Form III, (S)-(+)-N,N-Dimethyl-3-(1-naphthalenyloxy)-3-(2-thienyl)propanamine oxalate]
